In patent US12721537B2, “System and method for measuring blood flow velocity on a microfluidic chip” (CASE WESTERN RESERVE UNIVERSITY, priority 2020, dated 2026):

Legend:
citrate whole blood = assay: Thrombin-induced thrombus formation in a microchannel; type: cell-based; conditions: citrate whole blood reconstituted with 16.7 μM calcium chloride only
Text: The influence of clotting disorders and therapies can be assessed in a case study using elevated levels of thrombin to promote coagulation. […] It is hypothesized that elevated levels of thrombin will produce distinctive, quantifiable effects on the evolution of the blood flow and the associated formation and growth of thrombi, and these experiments will allow us to assess the ability of our model to identify those effects. Additionally, the effect of heparin, a common anticoagulant therapy, on the blood flow will be evaluated by adding heparin into the blood samples at appropriate doses.

whole blood = conditions: sodium citrate whole blood recalcified to 100 mM CaCl2, constant inlet pressure 20 mBar, PIV
Experimental: The whole blood sample for this example was drawn into a 3.2% sodium citrate containing vacutainer from a single healthy donor under an Institutional review board-approved protocol. The blood sample was stored at 4° C. upon collection and was processed within 24 h. […] Prior to the experiment, the whole blood sample was recalcified with the stock solution to obtain a final concentration of 100 mM CaCl2. […] The control experiment was performed by mixing the whole blood sample with PBS. Thereafter, the mixed blood sample was immediately injected into the microfluidic channel at a constant inlet pressure of 20 mBar by means of a Flow-EZ pressure control unit (Fluigent Inc., North Chelmsford, MA), as shown in FIG. 2. The constant supply pressure implies that the flow rate is reduced as the blood coagulates. The maximum initial shear rate was approximately 10 s^−1, and the shear rate reduced to zero as the flow slowed and eventually stopped due to microchannel blockage as coagulation occurred. The microfluidic channel was placed on an inverted microscope (Olympus IX83), and a video was recorded simultaneously under 4× magnification using a high-resolution camera (EXi Blue EXI-BLU-R-F-M-14-C) at 10 frames per second as soon as the flow was started. The field of view was centered on the microfluidic channel, and one pixel in the images corresponds to 1.58 μm. […]

With `[Ca+2].[Cl-].[Cl-]` [CaCl2, calcium chloride] the “blood flow in microchannel” value (citrate whole blood) was “flows uniformly”, the “thrombus formation in microchannel” value (citrate whole blood) was “No thrombus formation” and the “clotting time (dramatic drop in mean blood flow velocity)” value (whole blood) was roughly 220 s.
